Tested on: ARS mutant (ARS-Mut) with four base mutations (U28G, G42C, U47C and U51C)
Type: binding

For `Nc1ncnc2nc[nH]c12` [adenine], the “change versus free ARS-Mut” value was “not much different” and the td was 0.50 ms.
